In patent US7598275B2, “Nicotine in therapeutic angiogenesis and vasculogenesis” (priority 1999, dated 2009):

Columns and labels:
[1] = system: C57BL/6J mice; experiment: Disc angiogenesis system (DAS), fibrovascular growth into implanted disc; type: in vivo; details: for angiogenesis in comparison to vehicle: locally in disc pellet: bFGF 20 mcg, Del-1 0.2 M, nicotine 10^-6 M; for effect on nicotine-induced fibrovascular growth (systemic nicotine) / effect on nicotine-induced fibrovascular growth (local nicotine): oral supplementation: LNNA 6 mg/ml, indomethacin 20 mcg/ml; for effect on nicotine-induced fibrovascular growth (systemic nicotine): nicotine in drinking water; for effect on nicotine-induced fibrovascular growth (local nicotine): nicotine inside the DAS
Description: To study whether nicotine induces angiogenesis in vivo, we employed the disc angiogenesis system (DAS) (Kowalski et al. (1992) Exp Mol Pathol 56(1):1-19; Fajardo et al. (1998) Lab Invest 58:718-7244).
Preparation of the disc. The DAS consisted of a disc (11 mm in diameter and 1 mm thickness) made of a polyvinyl alcohol sponge (Kanebo PVA, RippeyCo., Santa Clara, Calif.). Both sides were covered with nitrocellulose cell-impermeable filters (Millipore filters, […] in pore diameter, Millipore, SF, Calif.) of the same diameter as the sponge disc, fixed to the sponge using Millipore glue#1 (xx70000.00, Millipore). As a result, cells (and thus vessels) could penetrate or exit only through the rim of the disc (Kowalski et al. (1992) Exp Mol Pathol 56(1):1-19; Fajardo et al. (1998) Lab Invest 58:718-7244).
In order to study the local effect of nicotine on angiogenesis, nicotine was placed in a pellet which was added directly to the disc. Briefly, a 1.5-mm core (pellet) was cut from the disc center. Both the pellets and discs were sterilized prior to assembly in a laminar flow hood. The pellet was loaded with up to 20 mcl of the nicotine solution and subsequently air-dried. We placed in the disc pellets with either vehicle (PBS, Sigma, Chemical Co., St Louis, Mo., n=5) or nicotine (10^-6 M, Aldrich Chemical Company, Milwaukee, Wis., n=5) to study the effects of locally administered nicotine. For comparison, in some cases basic fibroblast growth factor (bFGF; 20 mcg) or Del-1 protein (0.2 M) was added to the pellet, rather than nicotine. Both bFGF and Del-1 are known to induce angiogenesis. The pellet was then coated with ethylene-vinyl acetate co-polymer (Elvax, Dupont, Chemcentral Corp., Chicago, Ill.) which would permit slow release of the nicotine from the pellet into the disc. The pellet was then re-inserted into the disc before sealing the disc with the millipore filters.
To study the systemic effects of nicotine, in some cases the animals were administered nicotine in their drinking water (see below).
Implantation of the disc. The mice were anesthetized with 4% chloralhydrate [intraperitoneal administration (i.p.), 0.1 cc/10 g body weight]. The flanks and posterior surface of the thorax were shaved and cleaned with saturated 70% isopropyl alcohol. A 2-cm incision was made in the skin of the flank contra-lateral to the implantation site. Blunt dissection through the subcutaneous tissue produced a channel into which the saline moistened disc was inserted. The skin was closed with 5.0 silk suture (Kowalski et al. (1992) Exp Mol Pathol 56(1):1-19; Fajardo et al. (1998) Lab Invest 58:718-7244).
Disc removal and preparation. Two weeks after disc implantation, the mice were sacrificed with an overdose of 4% chloral hydrate (i.p.) and cervical dislocation. A careful incision was made next to the skin overlying the implanted disc, and the disc was gently removed from the implantation site. Attached tissue was carefully detached from the disc. After removing the disc, one filter was separated from the disc. Discs were then fixed in 10% formalin and embedded flat in paraffin. Subsequently, […] sections were made in a plane through the center of the disc and parallel to the disc surface.
Quantitation of results. The disc sections were stained with H&E for light microscopy and histomorphometric measurement of radial growth, and stained with toluidine blue for quantitative determination of total area of fibrovascular growth. Using a video microscope and a computer assisted digital image analysis system (NIH Image 1.59b9), the entire area of fibrovascular growth in the toluidine blue stained disc was calculated and expressed in mm^2. As described in a previous study, total fibrovascular growth area is directly proportional to the total area of the disc occupied by blood vessels (Kowalski et al. (1992) Exp Mol Pathol 56(1):1-19; Fajardo et al. (1998) Lab Invest 58:718-7244).

[2] = system: C57BL/6J mice
Experimental: Murine Ischemic Hindlimb Model of Peripheral Arterial Disease (PAD). Mice were anesthetized with 4% chloral hydrate [intraperitoneal administration (i.p.), 0.1 cc/10 g body weight). The medial surface of both hindlimbs were shaved and then cleaned with betadine solution. A 1.5-cm longitudinal incision was performed, extending from the knee to the inguinal ligament. Through this incision, the superficial femoral artery was dissected free along its length. After the distal ends of both the external iliac and superficial femoral arteries were ligated with 7.0 (Ethicon), complete excision of the femoral artery was performed. An additional set of mice underwent sham operation. The incisions were then closed with discontinuous stitches of 5.0 silk suture (Ethicon). Ampicillin (1 mg/10 gm body weight) intraperitoneal injection was administered after surgical procedure.
Tissue Preparation. Three weeks after surgery, mice were euthanized with an overdose of 4% chloral hydrate (i.p) and cervical dislocation, and the adductor and semimembranous muscles were collected for capillary density assessment. Briefly, a longitudinal incision in the medial thigh was made to expose the entire hindlimb muscle. The adductor and semimembranous muscles were removed and immediately frozen in OCT. Subsequently, sections 5 μm were taken from the mid-region of each muscle in a transverse orientation. The sections were air dried and fixed in acetone.
Capillary Densitometry. Immunohistochemistry was performed using an alkaline phosphatase assay to identify the endothelial cells. An eosin counterstain was used to differentiate myocytes. Capillaries and myocytes were identified and counted using light microscopy (20×). For each section, four different fields were selected and the total number of capillaries and myocytes per field determined. These values were averaged to provide a determination of capillary density for each experimental limb. To ensure that value for capillary density was not overestimated due to muscle atrophy, or underestimated due to interstitial edema, capillary density was expressed as a ratio of capillaries to myocytes present in the same field.
Daily intramuscular injections of nicotine solution or vehicle were administered (50 μl ) for a period of three weeks.

[3] = system: endothelial cells; experiment: Endothelial cell (EC) migration assay; type: cell-based
Description: In this experiment, the effects of VEGF, FGF and nicotine in an endothelial cell (EC) migration assay were observed. The EC migration assay involves growing a confluent endothelial monolayer, and then scraping away half of the cells. The number of endothelial cells that migrate over time into the denuded region was observed. Unstimulated cells will migrate into the region. Angiogenic agents will accelerate this migration.
In this histogram shown in FIG. 8, the number of migrating cells is expressed as a percentage of the number of endothelial cells migrating into the region under unstimulated conditions.

[4] = highest dose (3200 ng/kg = 3.2 μg/kg) i.m. daily for three weeks
[5] = VEGF 1 ng/ml, FGF, nicotine (FIG. 8)

With `CN1CCC[C@H]1c1cccnc1` [nicotine, S-3-(1-methyl-2-pyrrolidinyl)pyridine] the “angiogenic potency relative to growth factors tested in DAS (Del1, bFGF)” value ([1]; local effects in the disc angiogenesis system) was “as or more potent”, the “area of fibrovascular growth into the disc” value ([1]; local nicotine, 10^-6 M in pellet inside the disc, basal about 10 mm^2) was “about 20 mm^2” and the “angiogenesis in comparison to vehicle” value [1] was “increased angiogenesis to the same degree”. For the same molecule, the “angiogenesis, systemic versus local nicotine administration” value ([1]; systemic nicotine (drinking water) compared with nicotine in disc) was “greater than local nicotine administration”, the “angiogenesis, systemic administration versus locally administered bFGF and Del-1” value ([1]; systemic nicotine (drinking water), FIG. 4) was “much greater degree” and the “area of fibrovascular growth into the disc” value ([1]; systemic nicotine, 60 mcg/ml in drinking water, disc removed two weeks after implantation, basal somewhat greater than 10 mm^2) was 35 mm^2. For the same molecule, the “capillary density in the ischemic limb” value ([2]; 0.03 μg/kg i.m. daily for three weeks, vehicle control 0.35) was 0.67 capillaries/myocyte, the “angiogenic response in the ischemic limb at the highest dose” value [2, 4] was “angiogenesis was not increased” and the “toxicity at the highest dose (interstitial edema and myocyte necrosis)” value [2, 4] was “some toxicity was observed”. The “angiogenic effect in non-ischemic hindlimbs” value ([2]; untreated non-ischemic limb of animals given i.m. nicotine in the ischemic limb) was “no angiogenic effect was detected” and the “EC migration, number of migrating cells relative to unstimulated conditions” value [3, 5] was “same degree”.

In the case of `CN(C)C(=O)Oc1cccc([N+](C)(C)C)c1` [neostigmine], the “increase of EC migration” value ([3]; 10^−6 M alone, relative to unstimulated cells) is reported as “over 50%”.

`NC(=NCCC[C@H](N)C(=O)O)N[N+](=O)[O-]` [LNNA, L, nitro-arginine] was tested, and the “effect on nicotine-induced fibrovascular growth (systemic nicotine)” value [1] was “blocked” and the “effect on nicotine-induced fibrovascular growth (local nicotine)” value [1] was “blocked the effects of nicotine”.

In the case of “bFGF: basic fibroblast growth factor, known to induce angiogenesis”, the “angiogenesis in comparison to vehicle” value [1] is reported as “increased angiogenesis to the same degree”.

For `COc1ccc2c(c1)c(CC(=O)O)c(C)n2C(=O)c1ccc(Cl)cc1` [indomethacin], the “effect on nicotine-induced fibrovascular growth (systemic nicotine)” value [1] was “blocked” and the “effect on nicotine-induced fibrovascular growth (local nicotine)” value [1] was “blocked the effects of nicotine”.

VEGF was tested, and the “EC migration, number of migrating cells relative to unstimulated conditions” value [3, 5] was “increases EC migration to the same degree as FGF or Nicotine” and the “EC migration, number of migrating cells relative to unstimulated conditions” value ([3]; high dose VEGF 10 ng/ml) was “greatest response”.

B1: Del1: Del-1 protein, known to induce angiogenesis (protein, UniProt O43854 24-480, looked up)
EGF-like repeat and discoidin …: DICDPNPCENGGICLPGLADGSFSCECPDGFTDPNCSSVVEVASDEEEPTSAGPCTPNPCHNGGTCEISEAYRGDTFIGYVCKCPRGFNGIHCQHNINECEVEPCKNGGICTDLVANYSCECPGEFMGRNCQYKCSGPLGIEGGIISNQQITASSTHRALFGLQKWYPYYARLNKKGLINAWTAAENDRWPWIQINLQRKMRVTGVITQGAKRIGSPEYIKSYKIAYSNDGKTWAMYKVKGTNEDMVFRGNIDNNTPYANSFTPPIKAQYVRLYPQVCRRHCTLRMELLGCELSGCSEPLGMKSGHIQDYQITASSIFRTLNMDMFTWEPRKARLDKQGKVNAWTSGHNDQSQWLQVDLLVPTKVTGIITQGAKDFGHVQFVGSYKLAYSNDGEHWTVYQDEKQRKDKVFQGNFDNDTHRKNVIDPPIYARHIRILPWSWYGRITLRSELLGCTEEE
With B1 the “angiogenesis in comparison to vehicle” value [1] was “increased angiogenesis to the same degree”.
